According to US11945801B2, “Bicyclic aza compounds as muscarinic M1 and/or M4 receptor agonists” (Heptares Therapeutics Limited, priority 2018, dated 2024):
Like-named read-outs stand apart in the source and are kept apart here.

Legend:
Assay type in all cases: cell-based
[1] = molecular target: T1, human muscarinic M1 receptor (Homo sapiens, UniProt P11229); test: Alphascreen Surefire phospho-ERK1/2 functional assay, M1; details: for EC50: agonist 5 min, 37° C.; for Emax: CHO
T1 sequence (P11229 1-460): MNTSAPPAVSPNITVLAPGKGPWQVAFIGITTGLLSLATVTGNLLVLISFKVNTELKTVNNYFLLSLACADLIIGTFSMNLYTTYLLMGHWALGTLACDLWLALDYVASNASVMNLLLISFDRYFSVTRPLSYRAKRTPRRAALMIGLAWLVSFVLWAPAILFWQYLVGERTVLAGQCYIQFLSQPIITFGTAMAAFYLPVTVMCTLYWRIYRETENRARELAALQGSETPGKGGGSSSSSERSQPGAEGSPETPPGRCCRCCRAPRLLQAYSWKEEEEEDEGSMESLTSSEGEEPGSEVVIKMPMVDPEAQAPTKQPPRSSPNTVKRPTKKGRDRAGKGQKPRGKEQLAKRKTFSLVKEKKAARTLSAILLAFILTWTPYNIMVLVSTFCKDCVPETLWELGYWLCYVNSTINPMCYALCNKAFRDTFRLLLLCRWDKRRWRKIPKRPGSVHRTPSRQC
Description: (§1) ERK1/2 phosphorylation is a downstream consequence of both Gq/11 and Gi/o protein coupled receptor activation, making it highly suitable for the assessment of M1, M3 (Gq/11 coupled) and M2, M4 receptors (Gi/o coupled), rather than using different assay formats for different receptor subtypes. CHO cells stably expressing the human muscarinic M1, M2, M3 or M4 receptor were plated (25K/well) onto 96-well tissue culture plates in MEM-alpha+10% dialysed FBS. Once adhered, cells were serum-starved overnight. Agonist stimulation was performed by the addition of 5 μL agonist to the cells for 5 min (37° C.). Media was removed and 50 μL of lysis buffer added. After […], a 4 μL sample was transferred to 384-well plate and 7 μL of detection mixture added.
(§2) Isomer assignment (Isomer 1, Isomer 2, etc.) is based on the retention time of the compound using the separation technique that was performed in the final purification step. By implication, this could be reversed phase HPLC, chiral HPLC or chiral SFC retention time, and this will vary from compound to compound.

[2] = molecular target: T2, human muscarinic M2 receptor (Homo sapiens, UniProt P08172); test: Alphascreen Surefire phospho-ERK1/2 functional assay, M2; details: for Emax: CHO
T2 sequence (P08172 1-466): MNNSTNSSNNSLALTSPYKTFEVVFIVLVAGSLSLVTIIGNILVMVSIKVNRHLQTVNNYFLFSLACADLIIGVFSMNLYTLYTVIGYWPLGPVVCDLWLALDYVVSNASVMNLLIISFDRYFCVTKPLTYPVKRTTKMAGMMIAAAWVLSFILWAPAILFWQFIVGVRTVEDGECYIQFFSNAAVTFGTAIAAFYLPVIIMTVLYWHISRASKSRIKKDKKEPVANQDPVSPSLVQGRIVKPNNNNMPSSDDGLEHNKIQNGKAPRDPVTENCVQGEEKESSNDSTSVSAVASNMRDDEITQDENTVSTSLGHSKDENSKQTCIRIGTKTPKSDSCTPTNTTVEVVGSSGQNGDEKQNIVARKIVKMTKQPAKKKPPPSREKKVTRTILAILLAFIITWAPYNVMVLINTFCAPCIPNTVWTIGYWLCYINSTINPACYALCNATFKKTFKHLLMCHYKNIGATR
Description: as §1, §2

[3] = molecular target: T3, human muscarinic M3 receptor (Homo sapiens, UniProt P20309); test: Alphascreen Surefire phospho-ERK1/2 functional assay, M3; details: for Emax: CHO
T3 construct: expressed in transfected cells
Description: as §1, §2

[4] = molecular target: T4, human muscarinic M4 receptor (Homo sapiens, UniProt P08173); test: Alphascreen Surefire phospho-ERK1/2 functional assay, M4; details: for EC50 / % Emax cf. ACh, M4: CHO cells stably expressing human M4; for EC50: agonist 5 min, 37° C., read-out: pEC50 M4 (converted); for Emax: CHO
T4 construct: expressed in transfected cells
T4 sequence (P08173 1-479): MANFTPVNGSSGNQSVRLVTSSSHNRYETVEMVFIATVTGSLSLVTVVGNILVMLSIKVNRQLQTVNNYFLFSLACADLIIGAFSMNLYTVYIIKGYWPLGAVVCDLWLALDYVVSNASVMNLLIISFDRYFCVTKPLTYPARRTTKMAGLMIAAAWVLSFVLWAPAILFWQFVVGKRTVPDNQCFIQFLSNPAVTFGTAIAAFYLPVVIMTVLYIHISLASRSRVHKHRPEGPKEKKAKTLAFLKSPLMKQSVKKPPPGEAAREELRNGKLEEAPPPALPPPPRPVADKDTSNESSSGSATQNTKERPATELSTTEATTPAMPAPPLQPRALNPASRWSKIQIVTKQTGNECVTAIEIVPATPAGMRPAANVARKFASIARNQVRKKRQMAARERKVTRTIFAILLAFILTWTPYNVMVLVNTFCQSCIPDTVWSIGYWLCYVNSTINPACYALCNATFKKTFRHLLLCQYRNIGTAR
Description: as §1, §2

[5] = CHO cells stably expressing human M1, read-out: pEC50 M1 (converted)
[6] = CHO cells stably expressing human M2, agonist 5 min, 37° C., read-out: pEC50 M2 (converted)
[7] = CHO cells stably expressing human M3, agonist 5 min, 37° C., read-out: pEC50 M3 (converted)
[8] = read-out: % Emax cf. ACh, M1, CHO cells stably expressing human M1, Emax relative to ACh
[9] = read-out: % Emax cf. ACh, M2, CHO cells stably expressing human M2, Emax relative to ACh
[10] = read-out: % Emax cf. ACh, M3, CHO cells stably expressing human M3, Emax relative to ACh
[11] = read-out: % Emax cf. ACh, M4, CHO cells stably expressing human M4, Emax relative to ACh

T3 sequence (P20309 whole entry): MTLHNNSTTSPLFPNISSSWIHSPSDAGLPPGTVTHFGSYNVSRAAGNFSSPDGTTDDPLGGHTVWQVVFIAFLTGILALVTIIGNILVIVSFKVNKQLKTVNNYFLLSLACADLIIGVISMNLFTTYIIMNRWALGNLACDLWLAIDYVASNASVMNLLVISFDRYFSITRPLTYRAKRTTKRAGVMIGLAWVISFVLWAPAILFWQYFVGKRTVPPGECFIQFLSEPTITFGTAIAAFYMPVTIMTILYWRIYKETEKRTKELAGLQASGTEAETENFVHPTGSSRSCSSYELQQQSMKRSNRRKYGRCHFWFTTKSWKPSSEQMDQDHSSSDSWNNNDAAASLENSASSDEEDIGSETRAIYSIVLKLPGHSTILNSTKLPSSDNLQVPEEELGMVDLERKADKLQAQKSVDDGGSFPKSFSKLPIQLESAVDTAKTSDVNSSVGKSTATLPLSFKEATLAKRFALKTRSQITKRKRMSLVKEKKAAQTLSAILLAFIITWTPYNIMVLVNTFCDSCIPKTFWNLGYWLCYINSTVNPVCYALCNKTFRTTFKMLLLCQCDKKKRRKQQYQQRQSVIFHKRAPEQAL

SMILES	EC50 [1, 5] [µM]	EC50 [2, 6] [µM]	EC50 [3, 7] [µM]	EC50 [4] [µM]	Emax [1, 8] [%]	Emax [2, 9] [%]	Emax [3, 10] [%]	Emax [4, 11] [%]	Emax ([1]; read-out: % Emax cf. ACh, M1) [%]	Emax ([2]; read-out: % Emax cf. ACh, M2) [%]	Emax ([3]; read-out: % Emax cf. ACh, M3) [%]	Emax ([4]; read-out: % Emax cf. ACh, M4) [%]	other results
CCOC(=O)N1C2CCC1CC(N1CC(CC(=O)N3CCCCC3)C1)C2 (mixture of isomers) [Example 1-4 Isomer mixture, Ethyl-3-(3-(2-oxo-2-(piperidin-1-yl)ethyl)azetidin-1-yl)-8-azabicyclo[3.2.1]octane-8-carboxylate]	0.309	> 20	> 20	> 20					84	21	6	17	
CCOC(=O)N1C2CCC1CC(N1CC(OC(=O)N3CCCCCC3)C1)C2 (mixture of isomers) [Example 5-1 Isomer mixture, Ethyl 3-(3-((azepane-1-carbonyl)oxy)azetidin-1-yl)-8-azabicyclo[3.2.1]octane-8-carboxylate]				0.427					83	18	45	39	EC50 ([1]; pEC50 M1, CHO cells stably expressing human M1): 0.0891 µM; EC50 [2]: > 20 µM; EC50 [3]: > 20 µM
CCOC(=O)N1C2CCC1CC(N1CC(CC(=O)N(CC)CC)C1)C2 (single isomer, unassigned) [Example 1-1 Isomer 2, Ethyl-3-(3-(2-(diethylamino)-2-oxoethyl)azetidin-1-yl)-8-azabicyclo[3.2.1]octane-8-carboxylate]	0.316	1.26	> 20	0.2					100	58	28	85	
CCOC(=O)N1CC2CCC1CC2N1CC(CC(=O)N(CC)CC)C1 (single isomer, unassigned) [Example 2-1 Isomer 1, Ethyl-5-(3-(2-(diethylamino)-2-oxoethyl)azetidin-1-yl)-2-azabicyclo[2.2.2]octane-2-carboxylate]	0.209	> 20	> 20	> 20	67	13	6	9					
CCOC(=O)N1CC2CCC1CC2N1CC(CC(=O)N(CC)C(C)C)C1 (single isomer, unassigned) [Example 2-2 Isomer 1, Ethyl-5-(3-(2-(ethyl(isopropyl)amino)-2-oxoethyl)azetidin-1-yl)-2-azabicyclo[2.2.2]octane-2-carboxylate]	0.0191	> 20	> 20	0.257		8	12	36					% Emax cf. ACh, M1 ([1]; CHO cells stably expressing human M1, Emax relative to ACh, listed as 2-2 Isomer 1): 95%
CCOC(=O)N1C2CCCC1CC(N1CC(CC(=O)N3CCCCC3)C1)C2 (single isomer, unassigned) [Example 3-3 Isomer 1, Ethyl-3-(3-(2-oxo-2-(piperidin-1-yl)ethyl)azetidin-1-yl)-9-azabicyclo[3.3.1]nonane-9-carboxylate]	0.316	> 20	> 20	1.29					117	5	9	55	

Continued, in another order:

EC50 [1, 5] [µM]	EC50 [2, 6] [µM]	EC50 [3, 7] [µM]	EC50 [4] [µM]	Emax [1, 8] [%]	Emax [2, 9] [%]	Emax [3, 10] [%]	Emax [4, 11] [%]	SMILES	Emax ([1]; read-out: % Emax cf. ACh, M1) [%]	Emax ([2]; read-out: % Emax cf. ACh, M2) [%]	Emax ([3]; read-out: % Emax cf. ACh, M3) [%]	Emax ([4]; read-out: % Emax cf. ACh, M4) [%]	other results
0.229			> 20					CCOC(=O)N1CC2CCC1CC2N1CC(CC(=O)N(CC)C(C)C)C1 (single isomer, unassigned) [Example 2-2 Isomer 2, Ethyl-5-(3-(2-(ethyl(isopropyl)amino)-2-oxoethyl)azetidin-1-yl)-2-azabicyclo[2.2.2]octane-2-carboxylate]					% Emax cf. ACh, M1 ([1]; CHO cells stably expressing human M1, Emax relative to ACh, listed as 2-2 Isomer 2): 65%; % Emax cf. ACh, M2 ([2]; CHO cells stably expressing human M2, Emax relative to ACh): 6%; % Emax cf. ACh, M3 ([3]; CHO cells stably expressing human M3, Emax relative to ACh): 7%; % Emax cf. ACh, M4 ([4]; Emax relative to ACh): 31%
0.204	> 20	> 20	6.46	88	10	9	46	CCOC(=O)N1CC2CCC1CC2N1CC(CC(=O)N2CCCCC2)C1 (single isomer, unassigned) [Example 2-3 Isomer 1, Ethyl-5-(3-(2-oxo-2-(piperidin-1-yl)ethyl)azetidin-1-yl)-2-azabicyclo[2.2.2]octane-2-carboxylate]					
0.11	> 20	> 20	> 20	64	53	35	23	CCOC(=O)N1CC2CCC1CC2N1CC(CC(=O)N2CCC23CCC3)C1 (single isomer, unassigned) [Example 2-5 Isomer 1, Ethyl-5-(3-(2-oxo-2-(1-azaspiro[3.3]heptan-1-yl)ethyl)azetidin-1-yl)-2-azabicyclo[2.2.2]octane-2-carboxylate]					
0.158	> 20	> 20	0.282	105	14	17	89	CCOC(=O)N1CCC2(CC(N3CC(OC(=O)N(CC)CC)C3)C2)C1 (single isomer, unassigned) [Example 4-2 Isomer 2, Ethyl 2-(3-((diethylcarbamoyl)oxy)azetidin-1-yl)-6-azaspiro[3.4]octane-6-carboxylate]					
0.0589	> 20	> 20	0.0229	67	5	0	37	CCOC(=O)N1CC2(CCC(N3CC(OC(=O)N(C)CC)C3)C2)C1 (single isomer, unassigned) [Example 4-4 Isomer 1, Ethyl 6-(3-((ethyl(methyl)carbamoyl)oxy)azetidin-1-yl)-2-azaspiro[3.4]octane-2-carboxylate]					
0.0158	> 20	> 20	0.0331		6	54		CCOC(=O)N1CC2(CCC(N3CC(OC(=O)N(CC)CC)C3)C2)C1 (single isomer, unassigned) [Example 4-5 Isomer 1, Ethyl 6-(3-((diethylcarbamoyl)oxy)azetidin-1-yl)-2-azaspiro[3.4]octane-2-carboxylate]					% Emax cf. ACh, M1 ([1]; CHO cells stably expressing human M1, Emax relative to ACh, listed as 4-5 Isomer 1): 66%; % Emax cf. ACh, M4 ([4]; Emax relative to ACh, listed as 4-5 Isomer 1): 31%
